Test results reported in US20040138199A1, “Benzoxazines and derivatives thereof as therapeutic agents” (priority 2002, published 2004).

Target: T1, p101/p110γ protein (PI3Kγ) (Homo sapiens, UniProt P48736)
T1 construct: HA; made in house; host or cells: Spodoptera frugiperda (Sf9) cells, baculovirus coinfection
Experiment: PI3Kγ In Vitro Kinase Assay
Type: biochemical
Settings: purified recombinant p101/p110γ with G protein β1/γ2 subunits; 20 μM ATP, 25 μM PIP2; 20 minutes at room temperature; radioactive PIP3 readout
Outline: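 Baculovirus/Sf9-expressed p101/p110γ (~2.7 nM) with G protein β1/γ2, 20 μM ATP plus [γ-32P]ATP, PIP2/PE micelles (25 μM PIP2, 300 μM PE, 10 mM MgCl2) in HEPES buffer. Reaction 20 min at room temperature, stopped with H3PO4; radiolabelled PIP3 counted on filters to derive IC50 (μM).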

T1 sequence (P48736 whole entry, species assumed): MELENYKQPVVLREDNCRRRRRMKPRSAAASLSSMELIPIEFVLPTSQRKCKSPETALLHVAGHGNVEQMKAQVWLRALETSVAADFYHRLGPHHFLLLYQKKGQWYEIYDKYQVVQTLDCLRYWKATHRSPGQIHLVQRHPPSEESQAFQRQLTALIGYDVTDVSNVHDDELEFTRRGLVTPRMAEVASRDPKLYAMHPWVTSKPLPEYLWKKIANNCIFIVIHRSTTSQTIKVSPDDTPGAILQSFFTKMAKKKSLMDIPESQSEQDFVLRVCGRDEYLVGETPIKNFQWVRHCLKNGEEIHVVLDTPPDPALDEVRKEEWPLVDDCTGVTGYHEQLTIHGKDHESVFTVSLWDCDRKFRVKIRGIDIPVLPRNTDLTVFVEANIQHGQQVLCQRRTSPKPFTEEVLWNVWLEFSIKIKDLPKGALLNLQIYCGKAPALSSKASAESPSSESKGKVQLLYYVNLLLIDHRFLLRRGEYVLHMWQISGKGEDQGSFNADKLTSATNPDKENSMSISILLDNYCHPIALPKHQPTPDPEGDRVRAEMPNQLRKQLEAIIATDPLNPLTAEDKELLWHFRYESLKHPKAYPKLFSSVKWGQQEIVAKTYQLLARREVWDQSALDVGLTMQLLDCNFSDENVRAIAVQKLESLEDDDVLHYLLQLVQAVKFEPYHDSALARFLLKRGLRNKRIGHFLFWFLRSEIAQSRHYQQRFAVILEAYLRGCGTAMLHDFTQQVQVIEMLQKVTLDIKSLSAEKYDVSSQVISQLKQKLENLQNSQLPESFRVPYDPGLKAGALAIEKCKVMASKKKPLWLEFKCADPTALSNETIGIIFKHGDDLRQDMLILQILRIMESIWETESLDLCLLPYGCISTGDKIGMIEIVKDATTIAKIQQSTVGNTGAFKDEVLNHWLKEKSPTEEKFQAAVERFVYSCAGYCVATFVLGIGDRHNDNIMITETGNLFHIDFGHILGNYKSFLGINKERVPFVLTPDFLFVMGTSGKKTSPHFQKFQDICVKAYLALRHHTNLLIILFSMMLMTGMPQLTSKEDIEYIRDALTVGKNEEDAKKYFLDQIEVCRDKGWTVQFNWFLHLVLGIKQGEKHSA
T1 sequence (Q8WYR1 whole entry partner, species assumed): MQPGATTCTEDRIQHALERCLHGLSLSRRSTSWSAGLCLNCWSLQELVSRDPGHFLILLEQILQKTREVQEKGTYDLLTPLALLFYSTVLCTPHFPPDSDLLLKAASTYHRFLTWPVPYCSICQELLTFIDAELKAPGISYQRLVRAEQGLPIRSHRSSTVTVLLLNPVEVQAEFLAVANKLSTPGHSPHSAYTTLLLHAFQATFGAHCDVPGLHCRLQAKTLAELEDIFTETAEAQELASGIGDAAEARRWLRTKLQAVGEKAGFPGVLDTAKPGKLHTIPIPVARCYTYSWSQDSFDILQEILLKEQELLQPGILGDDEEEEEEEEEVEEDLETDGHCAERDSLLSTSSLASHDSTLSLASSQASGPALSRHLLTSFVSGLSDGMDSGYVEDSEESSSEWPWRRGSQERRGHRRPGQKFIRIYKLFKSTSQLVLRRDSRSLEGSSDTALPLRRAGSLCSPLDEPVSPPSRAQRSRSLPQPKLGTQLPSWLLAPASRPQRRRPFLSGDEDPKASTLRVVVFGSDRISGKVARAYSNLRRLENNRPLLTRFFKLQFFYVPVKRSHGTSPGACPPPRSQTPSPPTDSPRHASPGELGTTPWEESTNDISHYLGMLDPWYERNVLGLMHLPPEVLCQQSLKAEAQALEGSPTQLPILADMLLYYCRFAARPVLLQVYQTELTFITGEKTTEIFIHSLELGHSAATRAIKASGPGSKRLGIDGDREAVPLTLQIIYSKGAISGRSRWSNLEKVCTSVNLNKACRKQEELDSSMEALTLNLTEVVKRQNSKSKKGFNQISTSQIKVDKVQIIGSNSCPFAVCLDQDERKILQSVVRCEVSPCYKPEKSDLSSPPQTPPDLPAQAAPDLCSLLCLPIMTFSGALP

IC50 [nM] | Compound
31 | O=C1NC(=S)SC1=Cc1ccc2c(c1)N(C(=O)CCc1ccccc1)CCO2 [Example 70, 5-[4-(3-Phenyl-propionyl)-3,4-dihydro-2H-1,4-benzoxazin-6-ylmethylene]-2-thioxo-thiazolidin-4-one]
935 | O=C1NC(=S)SC1=Cc1ccc2c(c1)N(C(=O)c1ccc3c(c1)OCO3)CCO2 [Example 71, 5-[4-(1,3-Benzodioxole-5-carbonyl)-3,4-dihydro-2H-1,4-benzoxazin-6-ylmethylene]-2-thioxo-thiazolidin-4-one]
174 | CS(=O)(=O)c1ccc(C(=O)N2CCOc3ccc(C=C4SC(=S)NC4=O)cc32)cc1 [Example 72]
115 | COc1cc(CC(=O)N2CCOc3ccc(C=C4SC(=S)NC4=O)cc32)cc(OC)c1 [Example 73]
115 | CN1CCN(Cc2ccc(C(=O)N3CCOc4ccc(C=C5SC(=S)NC5=O)cc43)cc2)CC1 [Example 74]
14 | COc1ccc(NC(=O)N2CCOc3ccc(C=C4SC(=S)NC4=O)cc32)cc1OC [Example 75, 6-(4-Oxo-2-thioxo-thiazolidin-5-ylidenemethyl)-2,3-dihydro-benzo[14]oxazine-4-carboxylic acid (3,4-dimethoxy-phenyl)-aniide]
33 | O=C1NC(=S)SC1=Cc1ccc2c(c1)N(C(=O)Nc1cc(Cl)cc(Cl)c1)CCO2 [Example 76, 6-(4-Oxo-2-thioxo-thiazolidin-5-ylidenemethyl)-2,3-dihydro-benzo[14]oxazine-4-carboxylic acid (3,5-dichloro-phenyl)-amide]
2 | O=C1NC(=S)SC1=Cc1ccc2c(c1)N(C(=O)Nc1ccc(Cl)cc1)CCO2 [Example 77, 6-(4-Oxo-2-thioxo-thiazolidin-5-ylidenemethyl)-2,3-dihydro-benzo[1,4]oxazine-4-carboxylic acid (4-chloro-phenyl)-amide]
5 | O=C1NC(=S)SC1=Cc1ccc2c(c1)N(C(=O)Nc1ccc(Cl)c(Cl)c1)CCO2 [Example 78, 6-(4-Oxo-2-thioxo-thiazolidin-5-ylidenemethyl)-2,3-dihydro-benzo[1,4]oxazine-4-carboxylic acid (3,4-dichloro-phenyl)-amide]
9 | Cc1cc(C)cc(NC(=O)N2CCOc3ccc(C=C4SC(=S)NC4=O)cc32)c1 [Example 79, 6-(4-Oxo-2-thioxo-thiazolidin-5-ylidenemethyl)-2,3-dihydro-benzo[14]oxazine-4-carboxylic acid (3,5-dimethyl-phenyl)-amide]
2 | O=C1NC(=S)SC1=Cc1ccc2c(c1)N(C(=O)Nc1cccc(Cl)c1)CCO2 [Example 80, 6-(4-Oxo-2-thioxo-thiazolidin-5-ylidenemethyl)-2,3-dihydro-benzo[1,4]oxazine-4-carboxylic acid (3-chloro-phenyl)-amide]
3760 | CC(C)(C)c1cc(C(=O)N2CCOc3ccc(C=C4SC(=S)NC4=O)cc32)cc(C(C)(C)C)c1 [Example 81, 5-[4-(3,5-Di-tert-butyl-benzoyl)-3,4-dihydro-2H-benzo[1,4]oxazin-6-ethylene]-2-thioxo-thiazolidin-4-one]
1 | O=C1NC(=S)SC1=Cc1ccc2c(c1)N(C(=O)CCCc1ccccc1)CCO2 [Example 82, 5-[4-(4-Phenyl-butryl)-3,4-dihydro-2H-benzo[1,4]oxazin-6-ethylene]-2-thioxo-thiazolidin-4-one]
27 | O=C1NC(=S)SC1=Cc1ccc2c(c1)N(C(=O)C1CCCCCC1)CCO2 [Example 83, 5-[4-Cycloheptanecarbonyl-3,4-dihydro-2H-benzo[1,4]oxazin-6-ethylene]-2-thioxo-thiazolidin-4-one]
84 | CC(C(=O)N1CCOc2ccc(C=C3SC(=S)NC3=O)cc21)c1ccccc1 (stereo not shown) [Example 84, 5-[4-(2-Phenyl-propionyl)-3,4-dihydro-2H-benzo[1,4]oxazin-6-ethylene]-2-thioxo-thiazolidin-4-one]
12 | CC1CCCC(C(=O)N2CCOc3ccc(C=C4SC(=S)NC4=O)cc32)C1 (stereo not shown) [Example 85, 5-[4-(3-Methyl-cyclohexanecarbonyl)-3,4-dihydro-2H-benzo[1,4]oxazin-6-ethylene]-2-thioxo-thiazolidin-4-one]
179 | CC(C)C(C)C(=O)N1CCOc2ccc(C=C3SC(=S)NC3=O)cc21 (stereo not shown) [Example 86, 5-[4-(2,3-Dimethyl-butyryl)-3,4-dihydro-2H-benzo[1,4]oxazin-6-ethylene]-2-thioxo-thiazolidin-4-one]
120 | CC1CCCCC1CCC(=O)N1CCOc2ccc(C=C3SC(=S)NC3=O)cc21 (stereo not shown) [Example 87]
465 | COc1ccc(C)cc1C(=O)N1CCOc2ccc(C=C3SC(=S)NC3=O)cc21 [Example 88, 5-[4-(2-Methoxy-5-methyl-benzoyl)-3,4-dihydro-2H-benzo[1,4]oxazin-6-ethylene]-2-thioxo-thiazolidin-4-one]

IC50 [nM] | Compound
200 | Cc1ccc(F)c(C(=O)N2CCOc3ccc(C=C4SC(=S)NC4=O)cc32)c1 [Example 89, 5-[4-(2-Fluoro-5-methyl-benzoyl)-3,4-dihydro-2H-benzo[1,4]oxazin-6-ethylene]-2-thioxo-thiazolidin-4-one]
1030 | CC(C(=O)N1CCOc2ccc(C=C3SC(=S)NC3=O)cc21)C(C)(C)C (stereo not shown) [Example 90, 2-Thioxo-5-[4-(2,3,3-trimethyl-butyryl)-3,4-dihydro-2H-benzo[1,4]oxazin-6-ethylene]-2-thioxo-thiazolidin-4-one]
90 | CC1CCCCC1C(=O)N1CCOc2ccc(C=C3SC(=S)NC3=O)cc21 (stereo not shown) [Example 91, 5-[4-(2-Methyl-cyclohexanecarbonyl)-3,4-dihydro-2H-benzo[1,4]oxazin-6-ethylene]-2-thioxo-thiazolidin-4-one]
33 | CC(=O)N1CCOc2ccc(C=C3SC(=S)NC3=O)cc21 [Example 92, 5-(4-Acetyl-3,4-dihydro-2H-1,4-benzoxazin-6-ylmethylene)-2-thioxo-thiazolidin-4-one]
12 | CCC(=O)N1CCOc2ccc(C=C3SC(=S)NC3=O)cc21 [Example 93, 4-(4-Propionyl-3,4-dihydro-2H-1,4-benzoxazin-6-ylmethylene)-2-thioxo-thiazolidin-4-one]
10 | CCCC(=O)N1CCOc2ccc(C=C3SC(=S)NC3=O)cc21 [Example 94, 5-(4-Butyryl-3,4-dihydro-2H-1,4-benzoxazin-6-ylmethylene)-2-thioxo-thiazolidin-4-one]
8 | CCCCCC(=O)N1CCOc2ccc(C=C3SC(=S)NC3=O)cc21 [Example 95, 5-(4-Hexanoyl-3,4-dihydro-2H-1,4-benzoxazin-6-ylmethylene)-2-thioxo-thiazolidin-4-one]
5 | CCCCC(=O)N1CCOc2ccc(C=C3SC(=S)NC3=O)cc21 [Example 96, 5-(4-Pentanoyl-3,4-dihydro-2H-1,4-benzoxazin-6-ylmethylene)-2-thioxo-thiazolidin-4-one]
1610 | CC(C)(C)C(=O)N1CCOc2ccc(C=C3SC(=S)NC3=O)cc21 [Example 97, 5-[4-(2,2-Dimethyl-propionyl)-3,4-dihydro-2H-1,4-benzoxazin-6-ylmethylene]-2-thioxo-thiazolidin-4-one]
25 | CCCCCCCCC(=O)N1CCOc2ccc(C=C3SC(=S)NC3=O)cc21 [Example 98, 5-[4-(4-Nonanoyl)-3,4-dihydro-2H-1,4-benzoxazin-6-ylmethylene]-2-thioxo-thiazolidin-4-one]
275 | CCCCC(CC)C(=O)N1CCOc2ccc(C=C3SC(=S)NC3=O)cc21 (stereo not shown) [Example 99, 5-[4-(2-Ethyl-hexanoyl)-3,4-dihydro-2H-1,4-benzoxazin-6-ylmethylene]-2-thioxo-thiazolidin-4-one]
535 | CC(=O)OC(C)C(=O)N1CCOc2ccc(C=C3SC(=S)NC3=O)cc21 (stereo not shown) [Example 100, Acetic acid 1-methyl-2-oxo-2-[6-(4-oxo-2-thioxo-thiazolidin-5-ylidenemethyl)-2,3-dihydro-1,4-benzoxazin-4-yl]-ethyl ester]
20 | COC(=O)CCC(=O)N1CCOc2ccc(C=C3SC(=S)NC3=O)cc21 [Example 101, 4-Oxo-4-[6-(4-oxo-2-thioxo-thiazolidin-5-ylidenemethyl)-2,3-dihydro-1,4-benzoxazin-4-yl]-butyric acid methyl ester]
37 | CC(=O)N1CCC(C(=O)N2CCOc3ccc(C=C4SC(=S)NC4=O)cc32)CC1 [Example 102, 5-[4-(1-Acetyl-piperidine-4-carbonyl)-3,4-dihydro-2H-1,4-benzoxazin-6-ylmethylene]-2-thioxo-thiazolidin-4-one]
445 | O=C1NC(=S)SC1=Cc1ccc2c(c1)NCCCO2 [Example 103, 5-(6,7,8,9-Tetrahydro-5-oxa-9-aza-benzocyclohepten-2-ylmethylene)-2-thioxo-thiazolidin-4-one]
400 | O=C1NC(=S)SC1=Cc1ccc2c(c1)N(C(=O)Oc1cccc3ccccc13)CCCO2 [Example 106, 2-(4-Oxo-2-thioxo-thiazolidin-5-ylidenemethyl)-7,8-dihydro-6H-5-oxa-9-aza-benzocycloheptene-9-carboxylic acid naphthalen-1-yl ester]
640 | COC(=O)c1ccc(OC(=O)N2CCCOc3ccc(C=C4SC(=S)NC4=O)cc32)cc1 [Example 108, 2-(4-Oxo-2-thioxo-thiazolidin-5-ylidenemethyl)-7,8-dihydro-6H-5-oxa-9-aza-benzocycloheptene-9-carboxylic acid 4-methoxycarbonyl-phenyl ester]
2030 | O=C1NC(=S)SC1=Cc1ccc2c(c1)N(C(=O)COc1ccc(Cl)cc1)CCCO2 [Example 109, 5-{9-[2-(4-Chloro-phenoxy)-acetyl]-6,7,8,9-tetrahydro-5-oxa-9-aza-benzocyclohepten-2-ylmethylene}-2-thioxo-thiazolidin-4-one]
